Measurements from US20230131192A1, “1H-PYRAZOLO[4,3-d]PYRIMIDINE COMPOUNDS AS TOLL-LIKE RECEPTOR 7 (TLR7) AGONISTS” (BRISTOL-MYERS SQUIBB COMPANY, priority 2020, published 2023).

Experiments:
human TLR7 = target: T1, human TLR7 (Homo sapiens, UniProt Q9NYK1); experiment: Human TLR7 agonist (reporter) activity assay, HEK-Blue TLR7 cells, SEAP reporter; type: cell-based; settings: 18 h treatment, average where assay was performed multiple times, read-out: hTLR7 Agonism EC50
T1 construct: host or cells: HEK-Blue TLR7 cells (engineered human embryonic kidney cells)
T1 sequence (Q9NYK1 27-1049): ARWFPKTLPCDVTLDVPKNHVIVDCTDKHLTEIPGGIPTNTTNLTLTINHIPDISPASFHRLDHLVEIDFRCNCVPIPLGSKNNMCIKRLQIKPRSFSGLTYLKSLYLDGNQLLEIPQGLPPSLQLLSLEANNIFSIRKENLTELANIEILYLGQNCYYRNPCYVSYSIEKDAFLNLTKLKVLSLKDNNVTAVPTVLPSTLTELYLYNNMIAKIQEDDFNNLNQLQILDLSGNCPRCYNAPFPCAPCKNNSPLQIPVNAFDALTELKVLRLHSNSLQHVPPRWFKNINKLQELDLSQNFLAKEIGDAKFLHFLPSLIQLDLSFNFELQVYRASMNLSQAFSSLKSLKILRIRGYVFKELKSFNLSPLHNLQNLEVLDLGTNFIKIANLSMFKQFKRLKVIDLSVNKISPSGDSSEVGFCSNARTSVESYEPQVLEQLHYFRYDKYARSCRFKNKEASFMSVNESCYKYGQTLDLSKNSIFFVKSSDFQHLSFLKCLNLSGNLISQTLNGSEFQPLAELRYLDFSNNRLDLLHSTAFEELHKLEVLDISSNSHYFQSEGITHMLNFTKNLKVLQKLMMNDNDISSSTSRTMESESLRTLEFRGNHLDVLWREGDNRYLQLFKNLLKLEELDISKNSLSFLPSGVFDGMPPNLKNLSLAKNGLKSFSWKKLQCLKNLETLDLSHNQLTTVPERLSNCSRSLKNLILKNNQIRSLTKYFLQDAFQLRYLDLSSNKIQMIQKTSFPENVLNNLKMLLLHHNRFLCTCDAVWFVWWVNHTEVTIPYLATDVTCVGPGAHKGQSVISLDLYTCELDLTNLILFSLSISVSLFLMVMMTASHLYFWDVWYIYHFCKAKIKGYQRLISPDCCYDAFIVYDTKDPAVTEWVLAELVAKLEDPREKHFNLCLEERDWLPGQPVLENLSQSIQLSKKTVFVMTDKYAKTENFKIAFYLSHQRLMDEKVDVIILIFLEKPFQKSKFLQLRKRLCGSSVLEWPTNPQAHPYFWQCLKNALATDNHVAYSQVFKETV
Method: This procedure describes a method for assaying human TLR7 (hTLR7) agonist activity of the compounds disclosed in this specification.
HEK-Blue™ TLR7 cells were added to each well of a 384-well tissue-culture plate (15,000 cells per well) and incubated 16-18 h at 37° C., 5% CO2. Compounds (100 nl) were dispensed into wells containing the HEK-Blue™ TLR cells and the treated cells were incubated at 37° C., 5% CO2. After 18 h treatment ten microliters of freshly-prepared Quanti-Blue™ reagent (Invivogen) was added to each well, incubated for 30 min (37° C., 5% CO2) and SEAP levels measured using an Envision plate reader (OD=620 nm). The half maximal effective concentration values (EC50; compound concentration which induced a response halfway between the assay baseline and maximum) were calculated.

CD69 = experiment: Induction of CD69 in human whole blood; type: cell-based; settings: 17 hrs, CD69 surface staining, 100% set to 1 uM of resiquimod, average where assay was performed multiple times, read-out: hWB CD69 EC50
Method: The induction of Type I interferon (IFN) MX-1 genes and the B-cell activation marker CD69 are downstream events that occur upon activation of the TLR7 pathway. The following is a human whole blood assay that measures their induction in response to a TLR7 agonist.
Heparinized human whole blood was harvested from human subjects and treated with test TLR7 agonist compounds at 1 mM. The blood was diluted with RPMI 1640 media and Echo was used to predot 10 nL per well giving a final concentration of 1 uM (10 nL in 10 uL of blood). After mixing on a shaker for 30 sec, the plates were covered and placed in a 37° C. chamber for o/n=17 hrs. Fixing/lysis buffer was prepared (5×→1× in H2O, warm at 37° C.; Cat # BD 558049) and kept the perm buffer (on ice) for later use.
For surface markers staining (CD69): prepared surface Abs: 0.045 ul hCD14-FITC (ThermoFisher Cat # MHCD1401)+0.6 ul hCD19-ef450 (ThermoFisher Cat #48-0198-42)+1.5 ul hCD69-PE (cat # BD555531)+0.855 ul FACS buffer. Added 3 ul/well, spin1000 rpm for 1 min and mixed on shaker for 30 sec, put on ice for 30 mins. Stop stimulation after 30 minutes with 70 uL of prewarmed 1× fix/lysis buffer and use Feliex mate to resuspend (15 times, change tips for each plate) and incubate at 37 C for 10 minutes.
Centrifuge at 2000 rpm for 5 minutes aspirate with HCS plate washer, mix on shaker for 30 sec and then wash with 70 uL in dPBS and pelleted 2×s (2000 rpm for 5 min) and 50 ul wash in FACS buffer pelleted 1×s(2000 rpm for 5 min). Mix on shaker for 30 sec. For Intracellular markers staining (MX-1): Add 50 ul of BD Perm buffer III and mix on shaker for 30 sec. Incubate on ice for 30 minutes (in the dark). Wash with 50 uL of FACS buffer 2× (spin @2300 rpm×5 min after perm) followed by mixing on shaker for 30 sec. Resuspended in 20 ul of FACS buffer containing MX1 antibody ( )(4812)-Alexa 647: Novus Biologicals #NBP2-43704AF647) 20 ul FACS bf+0.8 ul hlgG+0.04 ul MX-1. Spin 1000 rpm for 1 min, mix on shaker for 30se and the samples were incubated at RT in the dark for 45 minutes followed by washing 2×FACS buffer (spin @2300 rpm×5 min after perm). Resuspend 20 ul (35 uL total per well) of FACS buffer and cover with foil and place in 4° C. to read the following day. Plates were read on iQuePlus. The results were loaded into toolset and […] curves are generated in curve master. The y-axis 100% is set to 1 uM of resiquimod.

| SMILES | EC50 (human TLR7) [µM] | EC50 (CD69) [µM] |
| --- | --- | --- |
| COc1cc(CNC2CCOCC2)ccc1Cn1nc(C)c2nc(N)nc(NCc3noc(C)n3)c21 [Compound 133, 1-[(2-methoxy-4-{[(oxan-4-yl)amino]methyl}phenyl)methyl]-3-methyl-N7-[(5-methyl-1,2,4-oxadiazol-3-yl)methyl]-1H-pyrazolo[4,3-d]pyrimidine-5,7-diamine] | 1.11 |  |
| COc1cc(CN2CC(OC)C2)ccc1Cn1ncc2nc(N)nc(N[C@H](CO)CC3CC3)c21 [Compound 125, (2S)-2-{[5-amino-1-({2-methoxy-4-[(3-methoxyazetidin-1-yl)methyl]phenyl}methyl)-1H-pyrazolo[4,3-d]pyrimidin-7-yl]amino}-3-cyclopropylpropan-1-ol] | 0.138 | 0.0152 |
| COc1cc(CN2CCN(CCO)CC2)cnc1Cn1ncc2nc(N)nc(NCc3noc(C)n3)c21 [Compound 131, 2-[4-({6-[(5-amino-7-{[(5-methyl-1,2,4-oxadiazol-3-yl)methyl]amino}-1H-pyrazolo[4,3-d]pyrimidin-1-yl)methyl]-5-methoxypyridin-3-yl}methyl)piperazin-1-yl]ethan-1-ol] | 1 | 0.0727 |
| COc1cc(CO)ccc1Cn1ncc2nc(N)nc(NCc3cc(C)on3)c21 [Compound 101, {4-[(5-amino-7-{[(5-methyl-1,2-oxazol-3-yl)methyl]amino}-1H-pyrazolo[4,3-d]pyrimidin-1-yl)methyl]-3-methoxyphenyl}methanol] | 0.354 | 0.472 |
| COc1cc(CN2CCN(C)CC2)ccc1Cn1nc(C)c2nc(N)nc(NCc3noc(C)n3)c21 [Compound 134, 1-({2-methoxy-4-[(4-methylpiperazin-1-yl)methyl]phenyl}methyl)-3-methyl-N7-[(5-methyl-1,2,4-oxadiazol-3-yl)methyl]-1H-pyrazolo[4,3-d]pyrimidine-5,7-diamine] | 0.159 |  |
| COc1cc(CN2CCN(C)CC2)ccc1Cn1ncc2nc(N)nc(NCc3noc(C)n3)c21 [Compound 115, 1-({2-methoxy-4-[(4-methylpiperazin-1-yl)methyl]phenyl}methyl)-N7-[(5-methyl-1,2,4-oxadiazol-3-yl)methyl]-1H-pyrazolo[4,3-d]pyrimidine-5,7-diamine] | 0.0672 | 0.0155 |
| COc1cc(CNC2CCOCC2)ccc1Cn1ncc2nc(N)nc(NCc3noc(C)n3)c21 [Compound 114, 1-[(2-methoxy-4-{[(oxan-4-yl)amino]methyl}phenyl)methyl]-N7-[(5-methyl-1,2,4-oxadiazol-3-yl)methyl]-1H-pyrazolo[4,3-d]pyrimidine-5,7-diamine] | 0.0791 | 0.0196 |
| COc1cc(CNC2CCC2)ccc1Cn1ncc2nc(N)nc(NCc3cc(C)on3)c21 [Compound 102, 1-({4-[(cyclobutylamino)methyl]-2-methoxyphenyl}methyl)-N7-[(5-methyl-1,2-oxazol-3-yl)methyl]-1H-pyrazolo[4,3-d]pyrimidine-5,7-diamine] | 0.0746 | 0.0258 |
| COc1cc(CO)ccc1Cn1ncc2nc(N)nc(NCc3noc(C)n3)c21 [Compound 116, {4-[(5-amino-7-{[(5-methyl-1,2,4-oxadiazol-3-yl)methyl]amino}-1H-pyrazolo[4,3-d]pyrimidin-1-yl)methyl]-3-methoxyphenyl}methanol] | 0.729 |  |
| COc1cc(CN2CCN(C)CC2)ccc1Cn1ncc2nc(N)nc(NCc3cc(C)on3)c21 [Compound 104, 1-({2-methoxy-4-[(4-methylpiperazin-1-yl)methyl]phenyl}methyl)-N7-[(5-methyl-1,2-oxazol-3-yl)methyl]-1H-pyrazolo[4,3-d]pyrimidine-5,7-diamine] | 0.0123 | 0.0036 |
| COc1cc(CN2CCN(CCO)CC2)ccc1Cn1ncc2nc(N)nc(NCc3cc(C)on3)c21 [Compound 105, 2-[4-({4-[(5-amino-7-{[(5-methyl-1,2-oxazol-3-yl)methyl]amino}-1H-pyrazolo[4,3-d]pyrimidin-1-yl)methyl]-3-methoxyphenyl}methyl)piperazin-1-yl]ethan-1-ol] | 0.0234 |  |
| COc1cc(CN2CCN(CCO)CC2)ccc1Cn1ncc2nc(N)nc(NCc3noc(C)n3)c21 [Compound 117, 2-[4-({4-[(5-amino-7-{[(5-methyl-1,2,4-oxadiazol-3-yl)methyl]amino}-1H-pyrazolo[4,3-d]pyrimidin-1-yl)methyl]-3-methoxyphenyl}methyl)piperazin-1-yl]ethan-1-ol] | 0.0186 | 0.0014 |
| COc1cc(CN2CCN(CCO)CC2)ccc1Cn1nc(C)c2nc(N)nc(NCC[C@H](O)C3CC3)c21 [Compound 126, (1S)-3-({5-amino-1-[(4-{[4-(2-hydroxyethyl)piperazin-1-yl]methyl}-2-methoxyphenyl)methyl]-3-methyl-1H-pyrazolo[4,3-d]pyrimidin-7-yl}amino)-1-cyclopropylpropan-1-ol] | 0.74 | 0.0253 |
| COc1cc(CN2CCC(S(C)(=O)=O)CC2)ccc1Cn1ncc2nc(N)nc(NCc3cc(C)on3)c21 [Compound 111] | 0.176 | 0.0588 |
| COc1cc(CNC2CCN(S(C)(=O)=O)CC2)ccc1Cn1ncc2nc(N)nc(NCc3noc(C)n3)c21 [Compound 123, 1-[(4-{[(1-methanesulfonylpiperidin-4-yl)amino]methyl}-2-methoxyphenyl)methyl]-N7-[(5-methyl-1,2,4-oxadiazol-3-yl)methyl]-1H-pyrazolo[4,3-d]pyrimidine-5,7-diamine] | 0.196 | 0.0182 |
| COc1cc(CNC2CCOCC2)ccc1Cn1ncc2nc(N)nc(N[C@H](CO)CC3CC3)c21 [Compound 108, (2S)-2-({5-amino-1-[(2-methoxy-4-{[(oxan-4-yl)amino]methyl}phenyl)methyl]-1H-pyrazolo[4,3-d]pyrimidin-7-yl}amino)-3-cyclopropylpropan-1-ol] | 0.342 | 0.119 |
| COc1cc(CN2CCN(CCO)CC2)ccc1Cn1nc(C)c2nc(N)nc(NCc3noc(C)n3)c21 [Compound 132, 2-[4-({4-[(5-amino-3-methyl-7-{[(5-methyl-1,2,4-oxadiazol-3-yl)methyl]amino}-1H-pyrazolo[4,3-d]pyrimidin-1-yl)methyl]-3-methoxyphenyl}methyl)piperazin-1-yl]ethan-1-ol] | 0.424 |  |
